# Measurements: US8952024B2, “Herbicidal pyrimidone derivatives” (E I du Pont de Nemours and Company, priority 2009, dated 2015)
# Assays:
# Assay type in all cases: in vivo
# [1] = test system: barnyardgrass (Echinochloa crus-galli); assay: Test A pre-/postemergence plant response; conditions: for Barnyardgrass plant response rating: visual injury, 0 to 100 scale (0 no effect, 100 complete control), approx. ten days
# How it was run: (§1)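 Both pre- and postemergence treatments are applied simultaneously, using chemicals formulated in a non-phytotoxic solvent mixture with surfactant. Postemergence plants are 2–10 cm high with one to two leaves. After approximately ten days in a greenhouse, injury is scored visually from 0 (none) to 100 (complete control) relative to untreated plants.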
# [2] = test system: corn (Zea mays); assay: Test A pre-/postemergence plant response; conditions: for Corn plant response rating: visual injury, 0 to 100 scale (0 no effect, 100 complete control), approx. ten days
# How it was run: as §1
# [3] = test system: giant foxtail (Setaria faberii); assay: Test A pre-/postemergence plant response
# How it was run: as §1
# [4] = test system: large crabgrass (Digitaria sanguinalis); assay: Test A pre-/postemergence plant response; conditions: for Crabgrass, Large plant response rating: visual injury, 0 to 100 scale (0 no effect, 100 complete control), approx. ten days
# How it was run: as §1
# [5] = test system: morningglory (Ipomoea spp.); assay: Test A pre-/postemergence plant response
# How it was run: as §1
# [6] = test system: pigweed (Amaranthus retroflexus); assay: Test A pre-/postemergence plant response
# How it was run: as §1
# [7] = test system: velvetleaf (Abutilon theophrasti); assay: Test A pre-/postemergence plant response
# How it was run: as §1
# [8] = test system: wheat (Triticum aestivum); assay: Test A pre-/postemergence plant response
# How it was run: as §1
# [9] = test system: barnyardgrass (Echinochloa crus-galli); assay: Test B flooded paddy test; conditions: for Plant response rating, Flood, Barnyardgrass: 250 g ai/ha, flooded paddy test, visual rating on 0 to 100 scale (0 no effect, 100 complete control) after 13 to 15 days; for Plant response rating, Barnyardgrass: Flood (flooded paddy test), 13 to 15 days; for Barnyardgrass plant response rating: Flood, 31 g ai/ha, scale 0 to 100 (0 no effect, 100 complete control)
# How it was run: (§2)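 2-leaf seedlings; pots flooded 3 cm over soil at treatment; cpd dosed into floodwater, depth kept constant. Greenhouse 13–15 d. Visual rating vs untreated controls, 0 = no effect, 100 = complete control.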
# [10] = test system: ducksalad (Heteranthera limosa); assay: Test B flooded paddy test; conditions: for Plant response rating, Flood, Ducksalad: 250 g ai/ha, flooded paddy test, visual rating on 0 to 100 scale (0 no effect, 100 complete control) after 13 to 15 days; for Plant response rating, Ducksalad: Flood (flooded paddy test), 13 to 15 days; for Ducksalad plant response rating: Flood, 31 g ai/ha, scale 0 to 100 (0 no effect, 100 complete control)
# How it was run: as §2
# [11] = test system: rice (Oryza sativa); assay: Test B flooded paddy test; conditions: for Plant response rating, Flood, Rice: 250 g ai/ha, flooded paddy test, visual rating on 0 to 100 scale (0 no effect, 100 complete control) after 13 to 15 days; for Plant response rating, Rice: Flood (flooded paddy test), 13 to 15 days; for Rice plant response rating: Flood, 31 g ai/ha, scale 0 to 100 (0 no effect, 100 complete control)
# How it was run: as §2
# [12] = test system: umbrella sedge (Cyperus difformis); assay: Test B flooded paddy test; conditions: for Plant response rating, Flood, Sedge, Umbrella: 250 g ai/ha, flooded paddy test, visual rating on 0 to 100 scale (0 no effect, 100 complete control) after 13 to 15 days; for Plant response rating, Sedge, Umbrella: Flood (flooded paddy test), 13 to 15 days; for Sedge, Umbrella plant response rating: Flood, 31 g ai/ha, scale 0 to 100 (0 no effect, 100 complete control)
# How it was run: as §2
# [13] = test system: Russian thistle (Salsola iberica); assay: Test F combination of compound 2 with bromoxynil, postemergence; conditions: 15 days, mean of three replicates, scale 0 to 100
# Description: Test F evaluated the effect of combining compound 2 with bromoxynil. The test species for this experiment was Russian thistle (Salsola iberica), which was prepared by sowing seeds into a blend of loam soil and sand. Test chemicals were formulated in a non-phytotoxic solvent mixture that included a surfactant and applied postemergence to plants ranging in height from 12 to 20 cm. […] Treatments consisted of Compound 2, bromoxynil, or their combination, using a spray volume of 457 L/ha. Each treatment was replicated three times. Treated plants and untreated controls were maintained in a greenhouse for 15 days, after which time all plants were visually evaluated and compared to the untreated controls. […] Colby's Equation was used to determine the herbicidal effects expected from the mixtures. Colby's Equation (Colby, S.
# [14] = Postemergence, 125 g ai/ha, 0 to 100 scale where 0 is no effect and 100 is complete control
# [15] = Preemergence, 125 g ai/ha, 0 to 100 scale where 0 is no effect and 100 is complete control, approximately ten days
# [16] = Preemergence, 500 g ai/ha, 0 to 100 scale, 0 = no effect, 100 = complete control
# [17] = Postemergence, 125 g ai/ha, visual injury, 0 to 100 scale (0 no effect, 100 complete control), approx. ten days
# [18] = Postemergence, 500 g ai/ha, visual injury, 0 to 100 scale (0 no effect, 100 complete control), approx. ten days
# [19] = 62 g ai/ha, scale of 0 to 100 where 0 is no effect and 100 is complete control
# [20] = 125 g ai/ha, scale 0 to 100, 0 is no effect, 100 is complete control
compound,measurement,setting,value
O=C(C1=C(O)C2CCC(C2)C1=O)c1cnc(-c2ccccc2)n(C2CCOCC2)c1=O (stereo not shown) [Compound 249],"Plant response rating, Barnyardgrass",[1]; [14],90
same,Barnyardgrass plant response rating,"[1]; Postemergence, 500 g ai/ha",100
same,"Plant response rating, Barnyardgrass",[1]; [15],0
same,"Plant response rating, Barnyardgrass",[1]; [16],40
same,"Plant response rating, Corn",[2]; [14],0
same,Corn plant response rating,"[2]; Postemergence, 500 g ai/ha",20
same,"Plant response rating, Corn",[2]; [15],0
same,"Plant response rating, Corn",[2]; [16],0
same,"Plant response rating, Foxtail, Giant",[3]; [17],80
same,"Foxtail, Giant plant response rating",[3]; [18],90
same,"Plant response rating, Foxtail, Giant",[3]; [15],20
same,"Plant response rating, Foxtail, Giant",[3]; [16],40
same,"Plant response rating, Crabgrass, Large",[4]; [14],90
same,"Crabgrass, Large plant response rating","[4]; Postemergence, 500 g ai/ha",100
same,"Plant response rating, Crabgrass, Large",[4]; [15],40
same,"Plant response rating, Crabgrass, Large",[4]; [16],80
same,"Plant response rating, Morningglory",[5]; [17],100
same,Morningglory plant response rating,[5]; [18],100
same,"Plant response rating, Morningglory",[5]; [15],30
same,"Plant response rating, Morningglory",[5]; [16],70
same,"Plant response rating, Pigweed",[6]; [17],90
same,Pigweed plant response rating,[6]; [18],100
same,"Plant response rating, Pigweed",[6]; [15],80
same,"Plant response rating, Pigweed",[6]; [16],100
same,"Plant response rating, Velvetleaf",[7]; [17],100
same,Velvetleaf plant response rating,[7]; [18],100
same,"Plant response rating, Velvetleaf",[7]; [15],60
same,"Plant response rating, Velvetleaf",[7]; [16],90
same,"Plant response rating, Wheat",[8]; [17],10
same,Wheat plant response rating,[8]; [18],50
same,"Plant response rating, Wheat",[8]; [15],0
same,"Plant response rating, Wheat",[8]; [16],0
same,"Plant response rating, Flood, Barnyardgrass",[9],0
same,"Plant response rating, Barnyardgrass",[9]; [19],0
same,"Plant response rating, Barnyardgrass",[9]; [20],0
same,Barnyardgrass plant response rating,[9],0
same,"Plant response rating, Flood, Ducksalad",[10],90
same,"Plant response rating, Ducksalad",[10]; [19],65
same,"Plant response rating, Ducksalad",[10]; [20],80
same,Ducksalad plant response rating,[10],0
same,"Plant response rating, Flood, Rice",[11],15
same,"Plant response rating, Rice",[11]; [19],0
same,"Plant response rating, Rice",[11]; [20],0
same,Rice plant response rating,[11],0
same,"Plant response rating, Flood, Sedge, Umbrella",[12],90
same,"Plant response rating, Sedge, Umbrella",[12]; [19],60
same,"Plant response rating, Sedge, Umbrella",[12]; [20],85
same,"Sedge, Umbrella plant response rating",[12],0
O=C(C1=C(O)C2CCC(C2)C1=O)c1cnc(-c2ccccc2)n(CC2CCCO2)c1=O (stereo not shown) [Compound 250],"Plant response rating, Barnyardgrass",[1]; [14],50
same,Barnyardgrass plant response rating,"[1]; Postemergence, 500 g ai/ha",100
same,"Plant response rating, Barnyardgrass",[1]; [15],0
same,"Plant response rating, Barnyardgrass",[1]; [16],40
same,"Plant response rating, Corn",[2]; [14],0
same,Corn plant response rating,"[2]; Postemergence, 500 g ai/ha",70
same,"Plant response rating, Corn",[2]; [15],0
same,"Plant response rating, Corn",[2]; [16],0
same,"Plant response rating, Foxtail, Giant",[3]; [17],90
same,"Foxtail, Giant plant response rating",[3]; [18],100
same,"Plant response rating, Foxtail, Giant",[3]; [15],30
same,"Plant response rating, Foxtail, Giant",[3]; [16],60
same,"Plant response rating, Crabgrass, Large",[4]; [14],60
same,"Crabgrass, Large plant response rating","[4]; Postemergence, 500 g ai/ha",100
same,"Plant response rating, Crabgrass, Large",[4]; [15],30
same,"Plant response rating, Crabgrass, Large",[4]; [16],90
same,"Plant response rating, Morningglory",[5]; [17],100
same,Morningglory plant response rating,[5]; [18],100
same,"Plant response rating, Morningglory",[5]; [15],10
same,"Plant response rating, Morningglory",[5]; [16],60
same,"Plant response rating, Pigweed",[6]; [17],100
same,Pigweed plant response rating,[6]; [18],100
same,"Plant response rating, Pigweed",[6]; [15],60
same,"Plant response rating, Pigweed",[6]; [16],100
same,"Plant response rating, Velvetleaf",[7]; [17],100
same,Velvetleaf plant response rating,[7]; [18],100
same,"Plant response rating, Velvetleaf",[7]; [15],50
same,"Plant response rating, Velvetleaf",[7]; [16],90
same,"Plant response rating, Wheat",[8]; [17],0
same,Wheat plant response rating,[8]; [18],20
same,"Plant response rating, Wheat",[8]; [15],0
same,"Plant response rating, Wheat",[8]; [16],10
same,"Plant response rating, Flood, Barnyardgrass",[9],10
same,"Plant response rating, Barnyardgrass",[9]; [19],0
same,"Plant response rating, Barnyardgrass",[9]; [20],10
same,Barnyardgrass plant response rating,[9],0
same,"Plant response rating, Flood, Ducksalad",[10],75
same,"Plant response rating, Ducksalad",[10]; [19],30
same,"Plant response rating, Ducksalad",[10]; [20],70
same,Ducksalad plant response rating,[10],30
same,"Plant response rating, Flood, Rice",[11],0
same,"Plant response rating, Rice",[11]; [19],0
same,"Plant response rating, Rice",[11]; [20],0
same,Rice plant response rating,[11],0
same,"Plant response rating, Flood, Sedge, Umbrella",[12],70
same,"Plant response rating, Sedge, Umbrella",[12]; [19],65
same,"Plant response rating, Sedge, Umbrella",[12]; [20],65
same,"Sedge, Umbrella plant response rating",[12],0
C#Cc1ccc(-c2ncc(C(=O)C3=C(O)C4CCC(C4)C3=O)c(=O)n2C2CCCCC2)cc1 (stereo not shown) [Compound 254],"Plant response rating, Barnyardgrass",[1]; [14],0
same,Barnyardgrass plant response rating,"[1]; Postemergence, 500 g ai/ha",90
same,"Plant response rating, Barnyardgrass",[1]; [15],0
same,"Plant response rating, Barnyardgrass",[1]; [16],10
same,"Plant response rating, Corn",[2]; [14],0
same,Corn plant response rating,"[2]; Postemergence, 500 g ai/ha",10
same,"Plant response rating, Corn",[2]; [15],0
same,"Plant response rating, Corn",[2]; [16],0
same,"Plant response rating, Foxtail, Giant",[3]; [17],10
same,"Foxtail, Giant plant response rating",[3]; [18],50
same,"Plant response rating, Foxtail, Giant",[3]; [15],0
same,"Plant response rating, Foxtail, Giant",[3]; [16],30
same,"Plant response rating, Crabgrass, Large",[4]; [14],20
same,"Crabgrass, Large plant response rating","[4]; Postemergence, 500 g ai/ha",70
same,"Plant response rating, Crabgrass, Large",[4]; [15],0
same,"Plant response rating, Crabgrass, Large",[4]; [16],50
same,"Plant response rating, Morningglory",[5]; [17],20
same,Morningglory plant response rating,[5]; [18],50
same,"Plant response rating, Morningglory",[5]; [15],0
same,"Plant response rating, Pigweed",[6]; [17],60
same,Pigweed plant response rating,[6]; [18],90
same,"Plant response rating, Pigweed",[6]; [15],0
same,"Plant response rating, Pigweed",[6]; [16],0
same,"Plant response rating, Velvetleaf",[7]; [17],50
same,Velvetleaf plant response rating,[7]; [18],90
same,"Plant response rating, Velvetleaf",[7]; [15],0
same,"Plant response rating, Velvetleaf",[7]; [16],20
same,"Plant response rating, Wheat",[8]; [17],0
same,Wheat plant response rating,[8]; [18],0
same,"Plant response rating, Wheat",[8]; [15],0
same,"Plant response rating, Wheat",[8]; [16],0
same,"Plant response rating, Flood, Barnyardgrass",[9],15
same,"Plant response rating, Barnyardgrass",[9]; [19],0
same,"Plant response rating, Barnyardgrass",[9]; [20],10
same,Barnyardgrass plant response rating,[9],0
same,"Plant response rating, Flood, Ducksalad",[10],100
same,"Plant response rating, Ducksalad",[10]; [19],85
same,"Plant response rating, Ducksalad",[10]; [20],85
same,Ducksalad plant response rating,[10],45
same,"Plant response rating, Flood, Rice",[11],0
same,"Plant response rating, Rice",[11]; [19],0
same,"Plant response rating, Rice",[11]; [20],0
same,Rice plant response rating,[11],0
same,"Plant response rating, Flood, Sedge, Umbrella",[12],80
same,"Plant response rating, Sedge, Umbrella",[12]; [19],50
same,"Plant response rating, Sedge, Umbrella",[12]; [20],75
same,"Sedge, Umbrella plant response rating",[12],30
"N#Cc1cc(Br)c(O)c(Br)c1 [bromoxynil, reference compound]",Russian Thistle Obsd. (observed effect),[13]; Bromoxynil 70 g a.i./ha alone,8
same,Russian Thistle Obsd. (observed effect),[13]; Bromoxynil 140 g a.i./ha alone,13
